In publication PMC11393688, “Design and synthesis of new 1,2,4-oxadiazole/quinazoline-4-one hybrids with antiproliferative activity as multitargeted inhibitors” (Frontiers in Chemistry, 2024):

What was measured:
EGFR^T790M = EGFR^T790M (Homo sapiens, UniProt P00533, T790M); assay: EGFR^T790M inhibitory assay (HTRF KinEASE-TK)
[1] = Cell viability, MTT test on normal cell line; format: cell-based; conditions: human, MCF-10A mammary gland epithelial cells (normal cell line), MCF-10A normal cells, 4 days incubation
Experimental: The human mammary gland epithelial (MCF-10A) normal cell line was used to test the viability of novel compounds 9a-o ([Mahmoud et al., 2022]; [Mekheimer et al., 2022]). After 4 days of incubation on MCF-10A cells, the cell viability of compounds 9a-o was determined using the MTT test.
The human mammary gland epithelial (MCF-10A) normal cell line was used to test the viability of compounds 9a-o ([Mahmoud et al., 2022]; [Mekheimer et al., 2022]). Refer to Supplementary Appendix A (Supplementary Material) for more details.
4.2. Biological evaluation
4.2.1. Cytotoxic activity using MTT Assay and evaluation of IC50
MTT assay was carried out to study the effect of compounds on mammary epithelial cells (MCF-10A). The medium in which cells were propagated contained Dulbecco's modified Eagle's medium (DMEM)/ Ham's F-12 medium (1:1) supplemented with epidermal growth factor (20 ng/mL), hydrocortisone (500 ng/mL), insulin (10 μg/mL), 2 mM glutamine and 10% foetal calf serum.
After every 2-3 days, the cells were passaged using trypsin ethylenediamine tetra acetic acid (EDTA). The cells were seeded at a density of 10^4 cells mL-1 in flat-bottomed culture plates containing 96 wells each. After 24 h, medium was removed from the plates and the compounds in (in 0.1% DMSO) were added (in 200 μL medium to yield a final concentration of 0.1% v/v) to the wells of plates. A single compound was designated with four wells followed by incubation of plates for 96h at 37°C. After incubation, medium was removed completely from the plates followed by addition of MTT (0.4 mg/mL in medium) to each well and subsequent incubation of plates for 3h. MTT (along with the medium) was removed and DMSO (150μL) was added to each well of the culture plates, followed by vertexing and subsequent measurement of absorbance (at 540 nm) using microplate reader. The data are shown as percentage inhibition of proliferation in comparison with controls containing 0.1% DMSO.

Sequence of EGFR^T790M (P00533 25-1210 T790M): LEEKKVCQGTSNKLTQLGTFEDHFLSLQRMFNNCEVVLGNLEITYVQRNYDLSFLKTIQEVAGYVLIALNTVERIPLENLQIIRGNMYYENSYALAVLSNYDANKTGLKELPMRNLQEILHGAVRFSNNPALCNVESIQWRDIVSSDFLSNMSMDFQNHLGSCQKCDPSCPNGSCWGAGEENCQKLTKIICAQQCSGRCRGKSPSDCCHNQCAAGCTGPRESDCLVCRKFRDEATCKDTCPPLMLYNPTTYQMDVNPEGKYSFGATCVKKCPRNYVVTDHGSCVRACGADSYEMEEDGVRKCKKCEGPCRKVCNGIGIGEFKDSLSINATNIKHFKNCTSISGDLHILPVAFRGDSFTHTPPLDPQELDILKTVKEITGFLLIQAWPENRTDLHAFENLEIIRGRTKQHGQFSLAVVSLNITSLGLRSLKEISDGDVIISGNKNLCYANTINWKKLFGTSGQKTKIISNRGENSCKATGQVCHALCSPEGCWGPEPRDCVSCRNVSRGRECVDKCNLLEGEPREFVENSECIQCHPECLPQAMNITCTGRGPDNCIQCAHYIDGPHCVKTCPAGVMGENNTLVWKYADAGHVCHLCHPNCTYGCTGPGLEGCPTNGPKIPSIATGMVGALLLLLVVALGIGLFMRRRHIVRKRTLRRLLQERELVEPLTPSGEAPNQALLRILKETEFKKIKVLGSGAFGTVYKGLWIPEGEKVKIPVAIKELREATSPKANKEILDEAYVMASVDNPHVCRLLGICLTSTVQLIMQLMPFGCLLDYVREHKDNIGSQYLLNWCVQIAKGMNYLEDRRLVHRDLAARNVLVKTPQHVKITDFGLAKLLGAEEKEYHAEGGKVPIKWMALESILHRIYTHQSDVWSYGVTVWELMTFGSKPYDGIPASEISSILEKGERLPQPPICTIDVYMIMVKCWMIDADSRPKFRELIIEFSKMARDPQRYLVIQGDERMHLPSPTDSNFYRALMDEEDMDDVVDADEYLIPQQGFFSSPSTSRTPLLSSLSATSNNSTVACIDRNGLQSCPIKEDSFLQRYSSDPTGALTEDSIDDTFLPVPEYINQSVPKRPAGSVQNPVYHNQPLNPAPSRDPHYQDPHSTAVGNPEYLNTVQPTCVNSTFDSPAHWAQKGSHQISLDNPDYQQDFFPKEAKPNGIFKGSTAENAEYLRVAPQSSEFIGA

## O=c1c2ccccc2nc(SCc2nc(-c3ccc(Cl)cc3)no2)n1-c1ccccc1 [Compound 9b, 2-((3-(4-Chlorophenyl)-1,2,4-oxadiazol-5-yl)methylthio)-3 phenylquinazolin-4(3H)-one]
EGFR^T790M
  IC50: 10 ± 1 nM
[1]
  viability at 96 h, 50 µM: 89%
